# Source: US6645914B1, “Surfactant-ammonium sulfate adjuvant composition for enhancing efficacy of herbicides” (NDSU-Research Foundation, priority 2002, dated 2003)
# Counter-ions that a name gives are not always drawn.
# How the values were obtained:
# Type in all cases: in vivo
# [1] = system: Kochia (Kochia scoparia L.); assay: Greenhouse kochia fresh weight reduction from 2,4-D, dicamba, bentazon as influenced by adjuvants; settings: no adjuvant
# Method: Kochia (Kochia scoparia L.) was grown in plastic cones containing a commercial peat-based greenhouse mixture with 5 plants per cone. All growing conditions and herbicide application procedures were similar as explained in Example 2. Herbicides were applied to kochia at the 4 to 6-leaf stage. Herbicide formulation and rates of herbicides and adjuvants are specified in Table 7. Plants were evaluated for herbicide injury and fresh weight reduction 14 days after herbicide application. Data presented are the means of two experiments with four replicates per experiment.
# The adjuvants, Activator 90. RTM and Composition 1, were added into soft and hard water carriers (volume per volume concentrations shown in TABLE 7) with 2,4-D at 220 g ae/ha, dicamba at 75 g ae/ha, or bentazon at 200 g ai/ha to prepare the final aqueous spray mixture applied at 80 L/ha on 4 to 6-leaf kochia. TABLE 7 includes the results of assessment made 2 weeks after treatment.
# [2] = system: velvetleaf (Abutilion theophrasti Medicus); assay: Greenhouse velvetleaf fresh weight reduction from glyphosate as influenced by adjuvants; settings: glyphosate (Roundup Ultra Max.RTM) 150 g ae/ha; hard water (Devils Lake, ND, No. 2 - well water); adjuvant 1%
# Method: Wheat (Triticum aestivum L.), velvetleaf (Abutilion theophrasti Medicus), Roundup Ready.RTM soybean (Glycine max (L.) Merr.), and Roundup Ready.RTM corn (Zea mays L.) were grown in plastic cones containing a commercial peat-based greenhouse mixture. Plants were thinned 1 wk after emergence to seven wheat, three velvetlaf, or one corn or soybean per cone and were watered and fertilized as needed for healthy growth. Natural daylight was supplemented for 16 h photoperiod with metal halide lamps with the light intensity of 450 μE/m^2/s. The greenhouse was maintained at 20° C. at night and 25 ±5° C. during the day. Glyphosate with adjuvants was applied to three-leaf wheat and corn, first-pair leaf velvetleaf, and to first-trifoliolate-leaf soybean using a cabinet laboratory sprayer that delivered 80 L/ha through a 8001 flat fan nozzle at 280 kPa generated by compressed air. Distilled water, Fargo tap water (soft), and two well waters from the Devils Lake, ND, area (hard and high sodium content, respectively) were used as spray carriers. Ion concentrations in these waters are described in TABLE 1. Formulation type and rates of glyphosate and adjuvants are specified in each table. In all greenhouse studies, plants were evaluated for herbicide injury and adjuvant efficacy 14 days after herbicide application. Data presented are the means of two experiments with four replicates per experiment. […]
# [3] = system: Wheat (Triticum aestivum L.); assay: Greenhouse wheat fresh weight reduction from glyphosate as influenced by adjuvants; settings: adjuvant 1%
# Method: Wheat (Triticum aestivum L.), velvetleaf (Abutilion theophrasti Medicus), Roundup Ready.RTM soybean (Glycine max (L.) Merr.), and Roundup Ready.RTM corn (Zea mays L.) were grown in plastic cones containing a commercial peat-based greenhouse mixture. Plants were thinned 1 wk after emergence to seven wheat, three velvetlaf, or one corn or soybean per cone and were watered and fertilized as needed for healthy growth. Natural daylight was supplemented for 16 h photoperiod with metal halide lamps with the light intensity of 450 μE/m^2/s. The greenhouse was maintained at 20° C. at night and 25 ±5° C. during the day. Glyphosate with adjuvants was applied to three-leaf wheat and corn, first-pair leaf velvetleaf, and to first-trifoliolate-leaf soybean using a cabinet laboratory sprayer that delivered 80 L/ha through a 8001 flat fan nozzle at 280 kPa generated by compressed air. Distilled water, Fargo tap water (soft), and two well waters from the Devils Lake, ND, area (hard and high sodium content, respectively) were used as spray carriers. Ion concentrations in these waters are described in TABLE 1. Formulation type and rates of glyphosate and adjuvants are specified in each table. In all greenhouse studies, plants were evaluated for herbicide injury and adjuvant efficacy 14 days after herbicide application. Data presented are the means of two experiments with four replicates per experiment.
# The adjuvants, ammonium sulfate, Activator 90. RTM, and mixtures thereof, Surfate.RTM, and Composition 1 were added into water [weight (for solids) or volume (for liquids) per volume concentrations shown in TABLE 2] with glyphosate at 100 g ae/ha to prepare the final aqueous spray mixture applied at 80 L/ha on 2 to 3 leaf wheat. Calcium chloride was added to distilled water to get 0, 125, 250, and 500 mg/L calcium cations. TABLE 2 includes the results of assessment made 2 weeks after treatment.
# The adjuvants, Activator 90. RTM, MON 0818, Atplus GTM7, Atplus GTM10 and their mixtures with ammonium sulfate, Surfate.RTM, and Composition 1 were added into three water carriers [weight (for solids) or volume (for liquids) per volume concentrations shown in TABLE 3] with glyphosate (100 g ae/ha) to prepare the final aqueous spray mixture applied at 80 L/ha on 2 to 3 leaf wheat. TABLE 3 includes the results of assessment made 2 weeks after treatment.
# The adjuvants, ammonium sulfate, Activator 90.RTM, and mixtures thereof, Surfate.RTM, and Composition 1 were added into two water carriers (weight [for solids] or volume [for liquids] per volume concentrations shown in TABLE 4) with three glyphosate formulations, all at 125 g ae/ha, to.prepare the final aqueous spray mixture applied at 80 L/ha on 2 to 3 leaf wheat. TABLE 4 includes the results of assessment made 2 weeks after treatment.
# Various iminodipropionate, betaine, imidazoline, and amine oxide amphoteric surfactants applied with ammonium sulfate and adjuvant formulations containing surfactant and ammonium sulfate, including Composition 1 of present invention, were added into hard water carrier [weight (for solids) or volume (for liquids) per volume concentrations shown in TABLE 5] with glyphosate at 125 g ae/ha to prepare the final aqueous spray mixture applied at 80 L/ha on 2 to 3 leaf wheat. TABLE 5 includes the results of assessment made 2 weeks after treatment.
smiles,measurement,setting,value
"COc1c(Cl)ccc(Cl)c1C(=O)O [dicamba-sodium salt, 3,6-dichloro-2-methoxybenzoic acid]",percent fresh weigh reduction,"[1]; dicamba-sodium salt 75 g ae/ha, water Devils Lake No. 1 (well)",9%
same,percent fresh weigh reduction,"[1]; dicamba-sodium salt 75 g ae/ha, water Fargo, ND (tap)",12%
N.N.O=S(=O)(O)O [Ammonium sulfate],Fresh weight reduction %,[2],54%
same,% fresh weight reduction,"[3]; Roundup Custom.RTM 125 g ae/ha, water Devils Lake No. 1 (well)",23%
same,% fresh weight reduction,"[3]; Roundup Custom.RTM 125 g ae/ha, water Fargo (tap)",68%
same,% fresh weight reduction,"[3]; Roundup Ultra Max.RTM 125 g ae/ha, water Devils Lake No. 1 (well)",43%
same,% fresh weight reduction,"[3]; Roundup Ultra Max.RTM 125 g ae/ha, water Fargo (tap)",54%
same,% fresh weight reduction,"[3]; Touchdown.RTM 125 g ae/ha, water Devils Lake No. 1 (well)",24%
same,% fresh weight reduction,"[3]; Touchdown.RTM 125 g ae/ha, water Fargo (tap)",71%
same,% fresh weight reduction,"[3]; glyphosate 100 g ae/ha (Roundup Ultra Max.RTM), Ca2+ 0 mg/L, 2 weeks after treatment",65%
same,% fresh weight reduction,"[3]; glyphosate 100 g ae/ha (Roundup Ultra Max.RTM), Ca2+ 125 mg/L, 2 weeks after treatment",72%
same,% fresh weight reduction,"[3]; glyphosate 100 g ae/ha (Roundup Ultra Max.RTM), Ca2+ 250 mg/L, 2 weeks after treatment",73%
same,% fresh weight reduction,"[3]; glyphosate 100 g ae/ha (Roundup Ultra Max.RTM), Ca2+ 500 mg/L, 2 weeks after treatment",64%
"O=C(O)COc1ccc(Cl)cc1Cl [2,4-D-dimethylamine salt, (2,4-dichlorophenoxy)acetic acid]",percent fresh weigh reduction,"[1]; 2,4-D-dimethylamine salt 220 g ae/ha, water Devils Lake No. 1 (well)",10%
same,percent fresh weigh reduction,"[1]; 2,4-D-dimethylamine salt 220 g ae/ha, water Fargo, ND (tap)",20%
"CC(C)N1C(=O)c2ccccc2NS1(=O)=O [bentazon-sodium salt, 3-(1-methylethyl)-(1H)-2,1,3-benzothiadiazin-4(3H)-one 2,2-dioxide]",percent fresh weigh reduction,"[1]; bentazon-sodium salt 200 g ai/ha, water Devils Lake No. 1 (well)",5%
same,percent fresh weigh reduction,"[1]; bentazon-sodium salt 200 g ai/ha, water Fargo, ND (tap)",20%
